Like-named read-outs stand apart in the source and are kept apart here.
Key:
Format in all cases: cell-based
human GIPR [1] = target: T1, human GIPR (Homo sapiens, UniProt P48546); parameters: host or cells: COS-7
T1 sequence (P48546 22-466): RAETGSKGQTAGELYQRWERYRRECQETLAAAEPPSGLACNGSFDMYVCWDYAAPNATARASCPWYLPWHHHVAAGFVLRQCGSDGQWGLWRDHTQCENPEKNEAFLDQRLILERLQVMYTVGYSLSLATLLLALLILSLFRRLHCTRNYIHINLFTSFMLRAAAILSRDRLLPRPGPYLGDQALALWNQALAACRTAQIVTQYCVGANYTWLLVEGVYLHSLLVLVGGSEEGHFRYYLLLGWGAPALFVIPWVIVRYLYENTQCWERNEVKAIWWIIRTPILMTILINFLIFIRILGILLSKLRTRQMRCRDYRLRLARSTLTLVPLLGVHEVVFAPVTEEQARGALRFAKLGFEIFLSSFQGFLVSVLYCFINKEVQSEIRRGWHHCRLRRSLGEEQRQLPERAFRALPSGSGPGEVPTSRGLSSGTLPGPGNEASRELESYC

rat GLP-2R = target: T2, rat GLP-2R (Rattus norvegicus, UniProt Q9Z0W0); experiment: HitHunter cAMP assay in transiently transfected COS-7 cells, rat GLP-2R; conditions: Emax normalized to highest concentration of endogenous ligand
T2 construct: expressed in transfected cells; host or cells: COS-7
T2 sequence (Q9Z0W0 1-550): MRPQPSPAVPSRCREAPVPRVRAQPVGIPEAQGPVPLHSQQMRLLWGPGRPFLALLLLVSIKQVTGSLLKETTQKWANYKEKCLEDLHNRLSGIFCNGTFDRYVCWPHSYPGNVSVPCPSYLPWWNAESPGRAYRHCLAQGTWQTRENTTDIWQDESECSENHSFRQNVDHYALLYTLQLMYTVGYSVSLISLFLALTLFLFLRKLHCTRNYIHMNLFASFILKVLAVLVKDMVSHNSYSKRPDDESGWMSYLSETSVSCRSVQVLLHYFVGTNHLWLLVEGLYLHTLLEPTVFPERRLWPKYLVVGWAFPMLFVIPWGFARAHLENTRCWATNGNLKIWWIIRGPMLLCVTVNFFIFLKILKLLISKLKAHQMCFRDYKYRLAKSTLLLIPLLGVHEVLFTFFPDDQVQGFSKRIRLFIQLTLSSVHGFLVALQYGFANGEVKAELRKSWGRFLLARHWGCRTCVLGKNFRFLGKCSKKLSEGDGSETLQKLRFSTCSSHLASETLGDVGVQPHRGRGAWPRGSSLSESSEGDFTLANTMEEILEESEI
Description: (§1) The next day the assay was initiated by washing with HEPES buffered saline (HBS) and followed by an incubation step with assay buffer (HBS added 1 mM isobutyl-1-methylxanthine (IBMX)) for 30 min at 37° C. The ligands were then added and incubated for an additional 30 min at 37° C. After ligand incubation, the HitHunter® CAMP assay (Eurofins DiscoverX, Fremont, […] USA) was carried out according to the manufacturer's instructions. Luminescence was measured by PerkinElmer™ EnVision 2014 Multilabel Reader (PerkinElmer, Waltham, MA). The potencies (EC50 values) were determined by nonlinear regression using GraphPad Prism 9 (San Diego, California, USA). Sigmoid curves were fitted logistically. The efficacies (Emax values) were determined by normalization to the highest concentration applied of the endogenous ligand for each receptor.

human GLP-1R = target: T3, human GLP-1R (Homo sapiens, UniProt P43220); experiment: HitHunter cAMP assay in transiently transfected COS-7 cells, human GLP-1R; conditions: for activation of hGLP-1R: fatty acid at C-terminal residue or position 16
T3 construct: host or cells: COS-7
Description: as §1

rat GIPR = target: T4, rat GIPR (Rattus norvegicus, UniProt P43219); experiment: HitHunter cAMP assay in transiently transfected COS-7 cells, rat GIPR; conditions: Emax normalized to highest concentration of endogenous ligand
T4 construct: expressed in transfected cells; host or cells: COS-7
T4 sequence (P43219 19-455): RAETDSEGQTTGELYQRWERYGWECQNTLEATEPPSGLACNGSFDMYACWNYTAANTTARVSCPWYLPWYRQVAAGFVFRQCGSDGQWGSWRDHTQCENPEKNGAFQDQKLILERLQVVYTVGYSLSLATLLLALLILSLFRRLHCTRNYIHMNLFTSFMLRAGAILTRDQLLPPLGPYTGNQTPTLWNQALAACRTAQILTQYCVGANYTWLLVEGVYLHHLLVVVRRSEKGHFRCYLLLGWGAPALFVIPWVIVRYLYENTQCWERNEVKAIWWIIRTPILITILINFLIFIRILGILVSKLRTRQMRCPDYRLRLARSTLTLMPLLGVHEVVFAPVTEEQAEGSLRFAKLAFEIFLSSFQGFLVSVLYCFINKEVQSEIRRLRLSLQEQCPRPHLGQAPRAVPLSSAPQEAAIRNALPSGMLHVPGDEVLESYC
Description: as §1

human GLP-2R = target: T5, human GLP-2R (Homo sapiens, UniProt O95838); experiment: HitHunter cAMP assay in transiently transfected COS-7 cells, human GLP-2R;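 further: cells kept 30 min at 37 °C in buffer with 1 mM IBMX, then given ligand for another 30 min at 37 °C before cAMP readout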
T5 construct: host or cells: COS-7
T5 sequence (O95838 1-553): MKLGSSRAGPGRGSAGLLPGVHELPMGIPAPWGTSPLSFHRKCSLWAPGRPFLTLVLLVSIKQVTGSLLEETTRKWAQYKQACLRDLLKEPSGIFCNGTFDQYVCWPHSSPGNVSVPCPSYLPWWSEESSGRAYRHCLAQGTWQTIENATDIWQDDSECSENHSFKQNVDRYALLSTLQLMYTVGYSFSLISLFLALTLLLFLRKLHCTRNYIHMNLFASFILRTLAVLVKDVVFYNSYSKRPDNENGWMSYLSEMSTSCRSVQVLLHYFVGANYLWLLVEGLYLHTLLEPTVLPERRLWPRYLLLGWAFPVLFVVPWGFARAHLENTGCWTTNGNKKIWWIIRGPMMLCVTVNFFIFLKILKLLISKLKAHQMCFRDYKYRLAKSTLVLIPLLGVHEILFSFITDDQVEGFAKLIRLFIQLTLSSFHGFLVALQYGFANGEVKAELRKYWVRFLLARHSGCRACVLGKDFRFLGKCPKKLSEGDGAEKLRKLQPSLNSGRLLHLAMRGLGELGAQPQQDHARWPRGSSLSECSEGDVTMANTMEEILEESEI
Description: COS-7 cells were cultured at 10% CO2 and 37° C. in Dulbecco's Modified Eagle Medium (DMEM) 1885 supplemented with 10% fetal bovine serum (FBS), 2 mM glutamine, 180 units/ml penicillin, and 45 g/ml streptomycin.
The next day the assay was initiated by washing with HEPES buffered saline (HBS) and followed by an incubation step with assay buffer (HBS added 1 mM isobutyl-1-methylxanthine (IBMX)) for 30 min at 37° C. The ligands were then added and incubated for an additional 30 min at 37° C. After ligand incubation, the HitHunter® CAMP assay (Eurofins DiscoverX, Fremont, 150 USA) was carried out according to the manufacturer's instructions. Luminescence was measured by PerkinElmer™ EnVision 2014 Multilabel Reader (PerkinElmer, Waltham, MA). The potencies (EC50 values) were determined by nonlinear regression using GraphPad Prism 9 (San Diego, California, USA). Sigmoid curves were fitted logistically. The efficacies (Emax values) were determined by normalization to the highest concentration applied of the endogenous ligand for each receptor.

human SNAP-GIPR = target: T6, human SNAP-GIPR (Homo sapiens, UniProt P48546); parameters: AUC ± SD: unit not given beside the values; conditions: GIPR internalization
T6 construct: host or cells: HEK293A
T6 sequence (P48546 22-466): T1 sequence (P48546 22-466)

human GIPR [2] = target: T1, human GIPR; parameters: host or cells: HEK293; conditions: beta-arrestin 2 recruitment
Description: HEK293 cells were cultured at 10% CO2 and 37° C. in DMEM-GlutaMAX™-I supplemented with 10% FBS, 180 units/mL penicillin and 45 g/mL streptomycin. These cells were transfected using PEI for the beta-arrestin recruitment assay as described in detail in (van der Velden et al., 2021).
HEK293 cells were transiently transfected with human GIPR, the donor Rluc8-Arrestin-3-Sp1 (beta-arrestin 2 recruitment), the acceptor mem-linker-citrine-SH3, and the GPCR kinase 2 (GRK2). Two days following transfection, the cells were washed with PBS and resuspended in PBS with 5 mM glucose. Then, 85 μL of the cell suspension solution was added to each well of a white 96-well plate followed by the addition of PBS with 5 μM coelenterazine-h. Following 10 min incubation, increasing concentrations of ligands were added and incubated for an additional 30 min. Luminescence was measured with the Berthold Technologies Mithras Multilabel Reader (Rluc8 at 485±40 nm and YFP at 530±25 nm). The potencies (EC50 values) were determined by nonlinear regression using GraphPad Prism 9 (San Diego, California, USA). Sigmoid curves were fitted logistically. The efficacies (Emax values) were determined by normalization to the highest concentration applied of the endogenous ligand (GIP) for the GIPR.

[3] = Emax normalized to highest concentration of endogenous ligand, Table 2
[4] = Emax normalized to highest concentration of endogenous ligand, Table 3
[5] = comparative peptides, Emax normalized to endogenous ligand, Table 4A
[6] = comparative peptides, Emax normalized to endogenous ligand, Table C
[7] = comparative peptides, Emax normalized to endogenous ligand, Table B

T3 sequence (P43220 24-463): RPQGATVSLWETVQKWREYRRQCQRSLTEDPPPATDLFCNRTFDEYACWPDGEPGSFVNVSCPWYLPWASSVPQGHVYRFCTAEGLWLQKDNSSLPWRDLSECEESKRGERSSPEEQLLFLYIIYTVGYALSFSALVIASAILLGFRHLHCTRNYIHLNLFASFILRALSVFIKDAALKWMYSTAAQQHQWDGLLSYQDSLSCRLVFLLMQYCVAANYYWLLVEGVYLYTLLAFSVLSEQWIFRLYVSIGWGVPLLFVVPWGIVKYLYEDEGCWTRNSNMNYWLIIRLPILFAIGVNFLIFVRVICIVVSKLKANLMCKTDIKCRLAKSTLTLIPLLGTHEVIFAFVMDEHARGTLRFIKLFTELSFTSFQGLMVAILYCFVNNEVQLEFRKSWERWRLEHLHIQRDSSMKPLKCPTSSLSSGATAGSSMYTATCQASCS

Substance | Efficacy GIPR (human GIPR [1]; [3]) | rGLP-2R Efficacy (%) (rat GLP-2R) | Efficacy GLP-1R (human GLP-1R; [4]) | rGIPR Efficacy (%) (rat GIPR) | Efficacy GLP-2R (human GLP-2R; [3]) | other results
(C10)H-Aib-DGTFISDYST-Aib-LDNLAARDFINWLIQTKITK-OH [Compound no. 44] | 110 | 90.0 | 19 | 87.3 | 100 | 
(C16)HADGTFISDYSTAibLDNLAARDFINWLIQTKITKNDWKHNITQ [Compound no. 53] | 90 | 18.0 |  | 77.3 | 79 | 
Ac-H-Aib-DGTFISDYS-K(γGlu-C16)-Aib-LDNLAARDFINWLIQTKITK-OH [Compound no. 36] | 92 |  | 19 |  | 76 | AUC ± SD (human SNAP-GIPR; AUC of sigmoid curves up to 1 μM): 47 ± 1; Emax ± SD (%) (human SNAP-GIPR; NA = no activity): 58 ± 8%
H-Aib-DG-K(γGlu-C16)-FISDYSTILDNLAARDFINWLIQTKITK-OH [Compound no. 9] | 110 | 82.0 | 32 | 74.3 | 91 | 
H-Aib-DGTFISDY-K(γGlu-C16)-T-Aib-LDNLAARDFINWLIQTKITK-OH [Compound no. 29] | 104 |  | 0 |  | 124 | 
H-Aib-DGTFISDY-K(γGlu-C16)-TILDNLAARDFINWLIQTKGKKNDWKHNITQ-NH2 [Compound no. 14] | 101 | 93.3 | 0 | 98.3 | 114 | 
H-Aib-DGTFISDYS-K(γGlu-C16)-Aib-LDNLAARDFINWLIQTKITK-OH [Compound no. 35] | 106 | 87.3 | 31 | 86.3 | 88 | AUC ± SD (human GIPR [2]; AUC of sigmoid curves up to 100 nM): 58 ± 14; Emax ± SD (%) (human GIPR [2]; normalized to highest concentration of GIP, NA = no activity): 34 ± 7%
H-Aib-DGTFISDYS-K(γGlu-C16)-ILDNLAARDFINWLIQTKITK-OH [Compound no. 12] | 107 |  | 62 |  | 79 | 
H-Aib-DGTFISDYST-Aib-LDNLAARDFINWLIQTKITK(C10)-NH2 [Compound no. 65, reference compound] |  |  |  |  |  | Efficacy GIPR (human GIPR [1]; [5]): 107; Efficacy GLP-1R (human GLP-1R; [6]): 76; activation of hGLP-1R (human GLP-1R): capable of activating hGLP-1R; Efficacy GLP-2R (human GLP-2R; [7]): 77
H-Aib-DGTFISDYSTIL-K(γGlu-C16)-NLAARDFINWLIQTKITK-OH [Compound no. 13] | 95 | 83.7 | 4 | 69.7 | 95 | 
H-Aib-DGTFISDYSTILDNLAARDFINWLIQTKITK(C10)-OH [Compound no. 63, reference compound] |  |  |  |  |  | Efficacy GIPR (human GIPR [1]; [5]): 99; Efficacy GLP-1R (human GLP-1R; [6]): 84; activation of hGLP-1R (human GLP-1R): capable of activating hGLP-1R; Efficacy GLP-2R (human GLP-2R; [7]): 105
H-Aib-EG-K(γGlu-C16)-FISDYST-Aib-LDNLAARDFINWLIQTKITK-OH [Compound no. 27] | 98 |  | 0 |  | 108 | 
